Laboratory results published in patent publication US20150004620A1, “METHOD OR DEVICE FOR IDENTIFYING INHIBITOR OF EPITHELIAL MESENCHYMAL TRANSITION” (Agency for Science, Technology and Research, priority 2011, published 2015).

Columns and labels:
Type in all cases: cell-based
[1] = tested on: ovarian carcinoma cell lines; assay: Cell movement tracking time-lapse videoscopy; conditions: 2 μM for 48 hours, tracked for 24 hours
Experimental: Cells were maintained in RMPI supplemented with 10% fetal bovine serum and 1× pen-strep. Cells were grown to 80% confluency in tissue culture flasks prior to plating. Cells were trysinized and plated onto a 12-well plate (BD) at a low density of 2000 cells per well in 1 ml of RMPI. Each ovarian cell line was seeded into two wells of a 12 well tissue culture plate. For each ovarian cell line, one of the two wells was treated with 2 μM AZD0530 and the other well treated with 0.02% DMSO control for 48 hours. Cells were imaged using a time-lapse video microscope incubator system (Leica) controlled by Metamorph software (Molecular Devices). Time-lapse images were taken at 5 min intervals for 24 hours and saved as tiff format. Each individual tiff images were compiled into stack images using the stack creation function in Metamorph. Each cell was tracked using the particle tracking function in Metamorph software. The tracking function detected and recorded the x and y coordinates of the cell being tracked for each image in the stack. The x and y coordinates were used to plot the track of the individual cell in excel. The total distance travelled, displacement and average velocity of the tracked cell were then tabulated.

[2] = tested on: EGF-induced EMT in NBT-II cells; assay: EMT spot migration assay, EGF-induced; conditions: EGF-induced EMT (20 ng/ml EGF), NBT-II cells, CDR dose response from 6.67 μM; read-out: Cell Dispersion IC 50, EGF
Experimental: NBT-II cells were stably transfected with mcherry-fluorescent H2B and maintained in DMEM supplemented with 10% fetal bovine serum (FBS, Thermo Scientific), 1 μg/ml puromycin (Sigma) and 100 units/ml penicillin-streptomycin (1× pen-strep, Invitrogen). Cells were grown to 80% confluency in tissue culture flasks prior to plating. Cells were trypsinized and concentrated to a density of 5×10^6 cell/ml in CO2-independent medium (Invitrogen) supplemented with 10% FBS. The cell suspension was then evenly dispersed into the wells of two columns of a 96-well V-bottom plate. Using a robotic liquid-handling station (Bravo, Agilent Technologies), 0.5 μl of cell suspension was transferred from the two columns of the cell suspension-loaded plate and deposited into the center of the wells of two columns of a 96-well clear bottom, black assay plate (Corning). This process was repeated six times so that all 96 wells of the assay plate were deposited with a cell suspension spot. The plate was then sealed to minimize evaporation of the cell suspension spots and transferred to a 37° C., 5% CO2 incubator to allow for cells to attach to the culture surface. After 1 hour, the plate was gently washed with medium once to remove unattached cells, refreshed with 100 μl of assay medium (DMEM supplemented with 10% FBS and 1× pen-strep), and then further incubated to allow for cell-cell contacts to establish in the cell colonies.
Four tiled, non-overlapping images were acquired around the center of each well, and were then stitched together during image analysis to generate a montage covering an area of 3.2 mm×3.2 mm. These images (T1) represent the initial state of the cell colonies before EMT induction.
After the T1 images were acquired, 1 μl of test compounds were transferred from compound stock plates and added to the assay plates. Appropriate negative controls (1 μl DMSO) and positive controls (1 μl 1.0 mM compound in DMSO) were also added into columns 1 and 12 of each assay plate, respectively. […] The cultures were then further incubated overnight.
The next day, 50 μl of growth factor-containing medium was added to each well of the assay-plates. For each of the growth factor-induced EMT spot migration assays, the final growth factor concentrations in each well is optimized to be 20 ng/ml EGF (Sigma), 4 ng/ml HGF (Calbiochem) or 150 ng/ml IGF-1 (R&D Systems), respectively. The cultures were then incubated for another 24 hours, to allow for EMT and sufficient cell motility/dispersion to occur in the cell colonies.
Finally, the cell colonies were imaged again using the microplate imager, as described above. These images (T2) represent the final state of the cell colonies after compound treatment and EMT induction. The acquired T1 and T2 image sets for each assay plate were then sent for image analysis.
The acquisition of each well was obtained by four adjacent field images with no interstice in between. Each field image was loaded and nuclei were initially segmented independently of other fields to prevent artifact at the field border. Nuclei segmentation was achieved by combining a wavelet transform which is robust to noise and unhomogeneous background, and a watershed algorithm based on intensities to split nuclei clusters. Mask of nuclei segmentation of the different fields were then stitched together in order to obtain a large segmentation of the whole well. Cell bodies were estimated by applying a morphological dilation on the nucleus segmentation using a disk of 30 pixels (48 μm) in diameter. In cells that are contiguous, such as in a cell colony, nuclei segmentation dilation will result in the formation of continuous region areas with surrounding cells which can then be identified as colonies.
Total cell number and spreading coefficient values for each well were then exported into an Excel sheet.

[3] = tested on: ovarian carcinoma cell lines; assay: Phase contrast cell morphology, ovarian carcinoma cell lines; conditions: A2780J, DOV13 and HEY cell lines, 2 μM for 48 hours vs 0.02% DMSO
Experimental: Cell lines were treated with 2 μM AZD0530 or 0.02% DMSO control for 48 hours. Scale bar is 200 μm. Thus, FIG. 9 provides an example of how the method as described herein may be validated by the use of various ovarian carcinoma cell lines.

[4] = tested on: lung carcinoma cell lines; assay: Phase contrast cell morphology, lung carcinoma cell lines; conditions: A549, Calu-1 and H165.0 cell lines, 2 μM for 48 hours vs 0.02% DMSO
Experimental: Cell lines were treated with 2 μM AZD0530 or 0.02% DMSO control for 48 hours. Scale bar is 100 μm. Thus, FIG. 8 provides an example of how the method as described herein may be validated by the use of various lung carcinoma cell lines.

E-cadherin = assay: Western blot of EMT marker E-cadherin in growth factor-treated NBT-II cells; conditions: NBT-II cells, 0.5, 2 and 8 μM compound overnight, then EGF, HGF or IGF-1 for 24 h (FIG. 7)
Experimental: NBT-II cells were treated with compounds at 0.5, 2 and 8 μM overnight and incubated with a growth factor for 24 h. Cells were lysed with protease/phosphatase inhibitor-containing RIPA buffer. Proteins are separated in 8% polyacrylamide gels and transferred to PDVF membranes. Membranes were blocked in 5% BSA and incubated at 4° C. overnight with MMP-13 (Millipore), E-cadherin (BD) and α-tubulin (Sigma) primary antibodies. Membranes were then developed with HRP-conjugated secondary antibody (Amersham) and ECL substrate (Millipore).
The possibilities that ALK5, MEK, PI3K and SRC targeting compounds could modulate the expression of EMT markers, such as E-cadherin and matrix metalloproteinase-13 (MMP-13) under EMT-activated conditions were also investigated (FIG. 7). With the exception of P13K inhibitor GDC-0941, the compounds in general abrogated MMP-13 expression in growth factor-treated samples, PI3K inhibition has been previously shown to augment MMP-13 expression. […] These findings are consistent with previous reports showing that ALK5, MEK and SRC play a role in cell motility and tumor progression, while PI3K predominately regulates cell proliferation.

[5] = panel of ovarian carcinoma cell lines

CN1CCN(CCOc2cc(OC3CCOCC3)c3c(Nc4c(Cl)ccc5c4OCO5)ncnc3c2)CC1 [AZD0530]
Mobility (individual cell tracks) ([1]; ovarian carcinoma cell lines): suppression of the mobility
Average displacement cells migrate [1, 5]: decrease
Average velocity of cell migrations [1, 5]: decrease
IC50 [2]: 560 nM
Cell morphology (phase contrast) [3]: compaction of cell morphology
Cell morphology (phase contrast) [4]: compaction of cell morphology
E-cadherin expression (E-cadherin): augment E-cadherin expression
